Experimental data from US20150218099A1, “METHODS FOR CONTROL OF AQUATIC WEEDS USING HERBICIDAL 4-AMINO-3-CHLORO-6-(4-CHLORO-2-FLUORO-3-METHOXYPHENYL)PYRIDINE-2-CARBOXYLIC ACIDS” (Dow AgroSciences LLC, priority 2014, published 2015).

Key:
Hydrilla (HYLLI) [1] = assay: Control of hydrilla: aboveground dry weight after submersed exposure (12 L tanks); format: in vivo, Hydrilla verticillata (L.f.) Royle; conditions: final aboveground dry weight, thirty-three days following submersed exposure, untreated 1.047
From the text: Apical sections (12 to 15 centimeters (cm) in length) of hydrilla (HYLLI) were planted into small pots (13.5 cm length×3.75 cm diameter) containing topsoil amended with 14-14-14 slow release Osmocote® fertilizer (˜2.5 grams (g) Osmocote per kilogram (kg) soil). Approximately 5 to 7 cm of the apical section extended above the sediment at planting, and a sand cap was placed over the potting soil (˜2 cm deep). Plants were then transferred to 12 liter (L) acrylic tanks filled with well water. Tanks were maintained in a growth room with a 14:10 hour (h) photoperiod at 26° C. (±2° C.). Plants were allowed to grow for 17 days (d) before the treatments were initiated in triple replicate. Plants were treated with Compound 1 (halauxifen-methyl) at 0, 10, 100, 1000 parts per billion (ppb) with three replicates each. Treatments were only applied once. Plants were harvested at 33 d after initial treatment. At harvest, plants were rinsed free of algae and placed in paper sacks in a drying oven for 2 d at 70° C. temperature. Mean dry weights were determined and means separated using least significant differences (Table 1).

Hydrilla (HYLLI) [2] = assay: Control of hydrilla: aboveground dry weight after exposure to Compounds 1 and 2 (14 L cylinders); format: in vivo, Hydrilla verticillata (L.f.) Royle; conditions: final aboveground dry weight, SC formulation, untreated 2.48
Method: Apical sections of hydrilla (HYLLI) were planted in potting soil amended with Osmocote® fertilizer in small pots (13.5 cm length×3.75 cm diameter). A 2.54 cm sand layer was placed over the top of the potting soil. The pots containing hydrilla were placed into 14 L acrylic cylinders filled with well water and allowed to establish slight growth prior to treatment. Cylinders were then treated with Compound 1 (halauxifen-methyl 96 grams acid equivalent per liter (g ae/L) Suspension Concentrate (SC)) or Compound 2 (benzyl 4-amino-3-chloro-5-fluoro-6-(4-chloro-2-fluoro-3-methoxyphenyl)pyridine-2-carboxylate (125 grams active ingredient per liter (g ai/L) SC)) at 50, 100 and 200 parts per billion (ppb). All treatments were replicated 4 times. […]

[3] = tested on: Curlyleaf Pondweed (PTMCR); assay: Control of curlyleaf pondweed: aboveground dry weight after exposure to Compound 1; format: in vivo, Potamogeton crispus L.; conditions: thirty days following a 24-hour exposure, untreated 0.087
From the text: (§1) Apical sections (12 to 15 cm in length) of Eurasian watermilfoil (MYPSP) and curlyleaf pondweed (PTMCR) were planted into small pots (13.5 cm length×3.75 cm diameter) containing topsoil amended with 14-14-14 slow release Osmocote® fertilizer (˜2.5 g Osmocote/kg soil). Approximately 5 to 7 cm of the apical section extended above the sediment at planting, and a sand cap was placed over the potting soil (˜2 cm deep). Plants were then transferred to 12 L acrylic tanks filled with well water. Plants were allowed to grow for 7 d before the treatment was initiated in triple replicate. […] At harvest, plants were rinsed free of algae, roots and shoots were separated and placed in paper sacks in a drying oven for 4 days at 70° C. temperature, and dry weights were measured and compared to an untreated control treatment (Table 3).

[4] = tested on: Eurasian Watermilfoil (MYPSP); assay: Control of Eurasian watermilfoil: aboveground dry weight after exposure to Compound 1; format: in vivo, Myriophyllum spicatum L.; conditions: thirty days following a 24-hour exposure, untreated 1.257
From the text: as §1

Q: Which results are given for `COC(=O)c1nc(-c2ccc(Cl)c(OC)c2F)cc(N)c1Cl` [Compound 1, methyl 4-amino-3-chloro-6-(4-chloro-2-fluoro-3-methoxyphenyl)pyridine-2-carboxylate]?
A: Dry Weight (grams) of HYLLI (Hydrilla (HYLLI) [1]; 10 ppb): 0.02 b grams; Dry Weight (grams) of HYLLI (Hydrilla (HYLLI) [1]; 100 ppb): 0.003 ab grams; Dry Weight (grams) of HYLLI (Hydrilla (HYLLI) [1]; 1000 ppb): 0 b grams; Dry Weight (grams) of HYLLI (Hydrilla (HYLLI) [2]; 50 ppb): 0.02 b grams; Dry Weight (grams) of HYLLI (Hydrilla (HYLLI) [2]; 100 ppb): 0.64 ab grams; Dry Weight (grams) of HYLLI (Hydrilla (HYLLI) [2]; 200 ppb): 0 b grams; Dry Weight (grams) of PTMCR ([3]; 5 ppb): 0.117 a grams; Dry Weight (grams) of PTMCR ([3]; 10 ppb): 0.043 ab grams; Dry Weight (grams) of PTMCR ([3]; 50 ppb): 0.000 b grams; Dry Weight (grams) of PTMCR ([3]; 100 ppb): 0.000 b grams; Dry Weight (grams) of MYPSP ([4]; 5 ppb): 0.000 b grams; Dry Weight (grams) of MYPSP ([4]; 10 ppb): 0.000 b grams; Dry Weight (grams) of MYPSP ([4]; 50 ppb): 0.000 b grams; Dry Weight (grams) of MYPSP ([4]; 100 ppb): 0.000 b grams

Q: Which “Dry Weight (grams) of HYLLI” value (Hydrilla (HYLLI) [2]; 50 ppb) does the source give for `COc1c(Cl)ccc(-c2nc(C(=O)OCc3ccccc3)c(Cl)c(N)c2F)c1F` [Compound 2, benzyl 4-amino-3-chloro-5-fluoro-6-(4-chloro-2-fluoro-3-methoxyphenyl)pyridine-2-carboxylate] here?
A: 0 b grams

Q: What about the “Dry Weight (grams) of HYLLI” value (Hydrilla (HYLLI) [2]; 100 ppb) of the same compound?
A: 0 b grams

Q: What about the “Dry Weight (grams) of HYLLI” value (Hydrilla (HYLLI) [2]; 200 ppb) of the same compound?
A: 0 b grams
